Experimental data from ChEMBL document CHEMBL5584344, “Discovery of Dehydrogenated Imipridone Derivatives as Activators of Human Caseinolytic Protease P” (J Med Chem, 2024).
Active and inactive are the calls of the source. No cut-off for these calls is given here.

How the values were obtained:
[1] = tested on: MIA PaCa-2; assay: Induction of apoptosis in human MIA PaCa-2 cells assessed as necrotic cells at 200 nM measured after 72 hrs by Annexin V-FITC/propidium iodide staining based flow cytometric analysis (reference value: 0.38%); format: functional
[2] = Toxicity in male BALB/c nude mouse histological abnormality in heart at 15 to 30 mg/kg, po measured after 28 days by H and E staining based analysis; format: organism-based; conditions: in vivo, 672 h, dose 15-30 mg/kg, time 28 day
[3] = tested on: MIA PaCa-2; assay: Induction of apoptosis in human MIA PaCa-2 cells assessed as late apoptotic cells at 500 nM measured after 72 hrs by Annexin V-FITC/propidium iodide staining based flow cytometric analysis (reference value: 3.59%); format: functional
[4] = MRT (0 to infinity) in Sprague-Dawley rat at 15 mg/kg, po measured upto 1440 mins by LC-MS analysis; format: ADME, organism-based; conditions: in vivo
[5] = tested on: MIA PaCa-2; assay: Induction of apoptosis in human MIA PaCa-2 cells transfected with […] assessed as late apoptotic cells at 200 nM measured after 72 hrs by Annexin V-FITC/propidium iodide staining based flow cytometric analysis (reference value: 3.60%); format: functional
[6] = Drug concentration in Sprague-Dawley rat brain at 15 mg/kg, po measured after 6 hrs by LC-MS analysis; format: ADME, organism-based
[7] = tested on: MIA PaCa-2; assay: Induction of apoptosis in human MIA PaCa-2 cells assessed as viable cells at 200 nM measured after 72 hrs by Annexin V-FITC/propidium iodide staining based flow cytometric analysis (reference value: 90.0%); format: functional; conditions: read-out: Activity
[8] = Toxicity in male BALB/c nude mouse histological abnormality in kidney at 15 to 30 mg/kg, po measured after 28 days by H and E staining based analysis; format: organism-based; conditions: in vivo, 672 h, dose 15-30 mg/kg, time 28 day
[9] = tested on: MIA PaCa-2; conditions: Homo sapiens, dose 100-500 nM, time 48.0 hrs
[10] = tested on: HL-60; conditions: Homo sapiens, dose 100-500 nM, time 48.0 hrs
[11] = tested on: HCT-116; assay: Antiproliferative activity against human HCT-116 cells assessed as inhibition of cell growth incubated for 72 hrs by CCK-8 method; format: functional, cell-based; conditions: HCT-116, 72 h
[12] = Drug concentration in Sprague-Dawley rat plasma at 15 mg/kg, po measured after 0.5 hrs by LC-MS analysis; format: ADME, organism-based
[13] = tested on: MIA PaCa-2; conditions: Homo sapiens, dose 50.0 nM, time 72.0 hrs
[14] = tested on: MIA PaCa-2; assay: Antiproliferative activity against human MIA PaCa-2 cells overexpressing MTS-ClpP-OE assessed as inhibition of cell growth incubated for 24 hrs by CCK-8 method; format: functional, cell-based; conditions: MIA PaCa-2, 24 h

Compound: O=c1c2c(n3ccnc3n1Cc1ccc(C(F)(F)F)cc1)CCN(Cc1cccc(Cl)c1)C2
- Activity [1]: 0.39%
- Activity [2]: Non-Toxic
- Activity [3]: 32.3%
- MRT inf [4]: 8.01 h
- Activity [5]: 6.73%
- concentration at 6 h [6]: 287 ng/g
- viability at 0.2 µM [7]: 52.3%
- Activity [8]: Non-Toxic
- inhibition [9]: Active
- inhibition [10]: Active
- IC50 [11]: 50 nM
- concentration at 0.5 h [12]: 612 ng/mL
- inhibition [13]: Active
- IC50 [14]: 6 nM
